Source: PubChem BioAssay (NCI)
Values joined by “and” are separate entries in the source; they are usually repeats but may differ in a detail not shown here. Equal values may be shown once.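 Growth conditions: 96-well plates. Treatment: test compound, 48 hours, 5 concentrations. Analysis: linear interpolation between bracketing concentrations; unreached endpoints set to highest concentration. GI50 marks 50% less growth. The concentration for full growth arrest is given as TGI.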

Experiments:
Assay in all cases: NCI-60 cell line screen, 48 h
UACC-62 melanoma = system: UACC-62 melanoma
SK-MEL-28 melanoma = system: SK-MEL-28 melanoma
UACC-257 melanoma = system: UACC-257 melanoma
SK-OV-3 ovarian = system: SK-OV-3 ovarian
HCT-15 colon = system: HCT-15 colon
KM12 colon = system: KM12 colon
ACHN renal = system: ACHN renal
CCRF-CEM leukemia = system: CCRF-CEM leukemia
SNB-75 CNS = system: SNB-75 CNS
RXF 393 renal = system: RXF 393 renal

| SMILES | GI50 (UACC-62 melanoma) | TGI (UACC-62 melanoma) | GI50 (SK-MEL-28 melanoma) | TGI (SK-MEL-28 melanoma) | GI50 (UACC-257 melanoma) | TGI (UACC-257 melanoma) | GI50 (SK-OV-3 ovarian) | TGI (SK-OV-3 ovarian) | GI50 (HCT-15 colon) | TGI (HCT-15 colon) | GI50 (KM12 colon) | TGI (KM12 colon) | GI50 (ACHN renal) | TGI (ACHN renal) | GI50 (CCRF-CEM leukemia) | TGI (CCRF-CEM leukemia) | GI50 (SNB-75 CNS) | TGI (SNB-75 CNS) | GI50 (RXF 393 renal) | TGI (RXF 393 renal) |
| --- | --- | --- | --- | --- | --- | --- | --- | --- | --- | --- | --- | --- | --- | --- | --- | --- | --- | --- | --- | --- |
| O=C(/C=C/c1ccc(B(O)O)cc1)/C=C/c1ccc(B(O)O)cc1 | 1.73 µM | 4.41 µM | 2.26 µM | 5.21 µM | 3.4 µM | 13.3 µM | 3.65 µM | 14.5 µM | 2.67 µM | 10.7 µM | 1.66 µM | 3.23 µM | 3.66 µM | 13.8 µM | 2.86 µM | 9.58 µM | 3.48 µM | 14.9 µM | 1.7 µM | 3.45 µM |
| CCCCCCCCCCCOC(=S)NC(C)C | – | 31.1 µM | – | 56.6 µM | – | 42.6 µM | – | 49.6 µM | – | 31.8 µM | – | 37.7 µM | – | 35.9 µM | – | 61.4 µM | – | 62.8 µM | – | 42.9 µM |
| C=C1C(=O)O[C@H]2[C@H]1CC/C(CNC(=O)/C=C/c1ccc(Br)cc1)=C\CC[C@@]1(C)O[C@@H]21 | 1.34 µM | 2.78 µM | 1.34 µM | 2.7 µM | 1.43 µM | 2.97 µM | 3.89 µM | 12.5 µM | 0.519 µM | 1.88 µM | 1.87 µM | 3.8 µM | 0.848 µM | 2.08 µM | 0.354 µM | 4.59 µM | 1.23 µM | 2.49 µM | 0.26 µM | 1.4 µM |
| C(=Nc1ccccc1)C1CCCC[N-]1.C(=Nc1ccccc1)C1CCCC[N-]1.[Cu+2].[O-][Cl+3]([O-])([O-])O (stereo not drawn) | 5 µM | 22.8 µM | 20.5 µM | 48.5 µM | > 37.7 µM | > 55.2 µM | 0.704 µM | 35.8 µM | 0.529 µM | 9.76 µM | 1.07 µM | 22.4 µM | 1.45 µM | 12.3 µM | 6.3 µM | 36.6 µM | 23.6 µM | 59 µM | 38.2 µM | > 100 µM |
| COc1ccc(-c2[nH]ncc2-c2cc3c(c(OC)c2)OCC(=O)N3)cc1 | 0.621 µM | 20.8 µM | 5.19 µM | > 100 µM | 3.23 µM | > 72.4 µM | 0.715 µM | > 100 µM | 0.457 µM | > 100 µM | 0.36 µM | 32.8 µM | 0.85 µM | > 100 µM | 0.398 µM | > 100 µM | 0.196 µM | 0.797 µM | 0.392 µM | 2.55 µM |
| O=C(c1ccc2ccccc2c1O)N1CCCCC1 | – | > 100 µM | – | > 100 µM | – | > 100 µM | – | > 100 µM | – | > 100 µM | – | > 100 µM | – | > 100 µM | – | > 100 µM | – | > 100 µM | – | > 100 µM |
| O=C(O)CSCc1cccc2ccccc12 | – | > 100 µM | – | > 100 µM | – | > 100 µM | – | > 100 µM | – | > 100 µM | – | > 100 µM | – | > 100 µM | – | > 100 µM | – | > 100 µM | – | > 100 µM |
| Nc1nc(CCC(=O)Nc2cccc(C(F)(F)F)c2)cc(-c2cccc3ccccc23)n1 | – | > 100 µM | – | > 100 µM | – | > 100 µM | – | > 100 µM | – | > 100 µM | – | > 100 µM | – | > 100 µM | – | > 100 µM | – | > 100 µM | – | > 100 µM |
| CNC(=O)c1cc(COc2nnc(Nc3ccc(Cl)cc3)c3ccoc23)ccn1 | 6.3 µM and > 10 µM | 30.3 µM and > 10 µM | 7.98 µM and > 10 µM | 27.7 µM and > 10 µM | 6.3 µM and > 10 µM | 35.6 µM and > 10 µM | 3.48 µM and 9.73 µM | 13.2 µM and > 10 µM | 12.6 µM and > 10 µM | 52.4 µM and > 10 µM | 21.5 µM and > 10 µM | 80.9 µM and > 10 µM | 3.86 µM and 7.18 µM | 15.4 µM and > 10 µM | 26.9 µM and > 10 µM | > 79.5 µM | 0.769 µM and 2.78 µM | 4.71 µM and > 10 µM | 2.99 µM and 9.09 µM | 11 µM and > 10 µM |
| CCOc1ccc(NC(=O)CC2SC(=Nc3ccc(Cl)cc3)NC2=O)cc1 (stereo not drawn) | – | > 100 µM | – | > 100 µM | – | > 100 µM | – | > 100 µM | – | > 100 µM | – | > 100 µM | – | > 100 µM | – | 43.5 µM | – | > 100 µM | – | > 100 µM |
| Cc1ccccc1NC(=S)Nc1ccccn1 | > 100 µM | > 100 µM | > 100 µM | > 100 µM | > 100 µM | > 100 µM | > 100 µM | > 100 µM | > 100 µM | > 100 µM | > 100 µM | > 100 µM | > 100 µM | > 100 µM | > 100 µM | > 100 µM | > 100 µM | > 100 µM | 13.9 µM | > 100 µM |
| CCSc1nnc2c(-c3ccccc3)n[nH]c2n1 | – | > 100 µM | – | > 100 µM | – | > 100 µM | – | > 100 µM | – | > 100 µM | – | > 100 µM | – | > 100 µM | – | > 100 µM | – | > 100 µM | – | > 100 µM |
| COc1cc2c(cc1OC)C13CCN4C=C5CCOC6CC(=O)N2C1C6C5CC43 (stereo not drawn) | – | > 100 µM | – | > 100 µM | – | > 100 µM | – | > 100 µM | – | > 100 µM | – | > 100 µM | – | > 100 µM | – | > 100 µM | – | > 100 µM | – | > 100 µM |
| O=S(=O)(Nc1ncccn1)c1ccc(N=Nc2ccc(O)c3ncccc23)cc1 | 3.4 µM | 14 µM | 12.5 µM | 46.3 µM | 14.8 µM | 45.2 µM | 19.2 µM | > 100 µM | 4.05 µM | 22.5 µM | 5.87 µM | 29.8 µM | 5.18 µM | 24.4 µM | 3.29 µM | 24.8 µM | 2.01 µM | 11 µM | 9.95 µM | 29.2 µM |
| CC[P+](C)(Cc1ccccc1)c1ccccc1 (stereo not drawn) | – | > 100 µM | – | > 100 µM | – | > 100 µM | – | > 100 µM | – | > 100 µM | – | > 100 µM | – | > 100 µM | – | > 100 µM | – | > 100 µM | – | > 100 µM |
| COc1cccc2c1C(=O)c1c(O)c3c(c(O)c1C2=O)CC(O)(C(C)=O)CC3OC1CC(N)C(O)C(C)O1 (stereo not drawn) | 0.0157 µg/mL | 0.0734 µg/mL | 0.104 µg/mL | 0.607 µg/mL | 0.116 µg/mL | 2.06 µg/mL | 0.0312 µg/mL | 2.68 µg/mL | 0.824 µg/mL | 7.86 µg/mL | 0.0445 µg/mL | 0.776 µg/mL | 0.0176 µg/mL | 0.1 µg/mL | – | 0.324 µg/mL | 0.0256 µg/mL | 0.138 µg/mL | 0.263 µg/mL | 1.48 µg/mL |
| Nc1ncnc2c1ncn2C1OC(COP(=O)(O)CP(=O)(O)O)C(O)C1O (stereo not drawn) | – | > 100 µM | – | > 100 µM | – | > 100 µM | – | > 100 µM | – | > 100 µM | – | > 100 µM | – | > 100 µM | – | > 100 µM | – | > 100 µM | – | > 100 µM |
| Cn1cc(-c2nonc2-c2c[nH]c3ccccc23)c2ccccc21 | 0.341 µM | 5.1 µM | 1.45 µM | 18.1 µM | 0.918 µM | 20.5 µM | 0.563 µM | 18.4 µM | 0.354 µM | 11.3 µM | 0.396 µM | 8.74 µM | 0.527 µM | 13.4 µM | 0.396 µM | 27.9 µM | 0.188 µM | 0.761 µM | 0.378 µM | 5.7 µM |
| Cc1ccc(NCCCN2CCN(CCCNc3ccc(C)c4sc5ccccc5c(=O)c34)CC2)c2c(=O)c3ccccc3sc12 | – | > 100 µM | – | > 100 µM | – | > 100 µM | – | > 100 µM | – | > 100 µM | – | > 100 µM | – | > 100 µM | – | > 100 µM | – | 57.1 µM | – | > 100 µM |
| Cc1cc(C)nc(NC(N)=NCCc2ccccc2)n1 | 2.97 µM | 21.4 µM | 3.59 µM | 33.6 µM | 2.64 µM | 39.4 µM | 2.65 µM | 28.9 µM | 5.09 µM | > 100 µM | 3.62 µM | > 100 µM | 4.94 µM | > 100 µM | 5.19 µM | > 100 µM | 2.08 µM | 9.75 µM | 7.22 µM | 77.2 µM |
| CC1=CC2CC(C)=C(CC[C@]3(C)CC[C@H]([C@@H](C)C(=O)O)OO3)C(C)(C)C2CC1 (stereo partly drawn) | – | 2.81 µM | – | 3.1 µM | – | 3.03 µM | – | 3.68 µM | – | 2 µM | – | 0.316 µM | – | 2.64 µM | – | 0.493 µM | – | 2.29 µM | – | 1.09 µM |
| CC1=NN(C(=O)c2ccccc2O)C(=O)/C1=C/c1ccc([N+](=O)[O-])cc1 | – | 2.16 µM | 4.7 µM | > 100 µM | 2.34 µM | > 100 µM | 1.6 µM | > 100 µM | 0.932 µM | – | 0.779 µM | > 100 µM | 0.545 µM | > 100 µM | 0.259 µM | – | 0.0532 µM | > 100 µM | 0.263 µM | – |
| Cc1ccc(C(=O)N(CCCN)[C@@H](c2nc3cc(Cl)ccc3c(=O)n2Cc2ccccc2)C(C)C)cc1 | < 0.01 µM | 1.91 µM and 1.57 µM | 1.11 µM and 1.15 µM | 2.5 µM and 2.42 µM | – | 1.86 µM and 2.79 µM | < 0.01 µM | 1.65 µM and 2.19 µM | 0.0159 µM and < 0.01 µM | 1.92 µM and 1.44 µM | < 0.01 µM | 1.29 µM and 1.44 µM | 0.798 µM | 2.38 µM and 2.15 µM | < 0.01 µM | 3.3 µM and 1.46 µM | < 0.01 µM | 1.56 µM and 1.37 µM | < 0.01 µM | – |
